The record followed here is patent publication US20110217293A1, “Uses of morelloflavone” (priority 2008, published 2011).

For test [1], the system named is vascular smooth muscle cells. As to the kind of experiment: Cell cycle analysis by flow cytometry. The test is classed as cell-based, mouse. As to conditions: concentrations up to 10 mM (10 μM), 24 hr. Here is the method: (§1) Mouse vascular smooth muscle cells, isolated as described (13), were maintained in 231 media (Cascade Biologics, Portland, Oreg.) supplemented with SMGS (Cascade Biologics) in a humidified incubator at 37° C. with 5% CO2. Cells from passages 4-9 were used in all experiments. All experiments were performed in subconfluent, unsynchronized cells growing in SMGS except for the lamellipodium formation assay.
Vascular smooth muscle cells (1×106) were seeded onto 10-cm dishes and treated with various concentrations of morelloflavone. After 24 hr incubation, the cells were fixed with 70% ethanol at 4° C. overnight, treated with RNAse in PBS, stained with propidium iodide (Sigma, St. Louis, Mo.), and subjected to flow cytometric DNA content analysis using Epics XL (Beckman-Coulter, Miami, Fla.). The percentages of cells in G1, S, and G2/M phases were determined using Multi-cycle system software (Phoenix Flow System, San Diego, Calif.).
(In general: Flow cytometry measures light scatter and fluorescence of single cells or particles in a stream.)

Test [2] relates to vascular smooth muscle cells. As to the kind of experiment: Invasion assay (modified Boyden chamber). The test is classed as cell-based, mouse. As to conditions: 1 mM morelloflavone, 8-hour incubation. The procedure:
as §1
The lower chambers of the ChemoTx® Disposable Chemotaxis System (NeuroProbe, Gaithersburg, Md.) were filled with […] of SMGS diluted in 231 medium at the appropriate concentrations (0-10%). A filter membrane ([…] pore size) was positioned over the lower wells, and 1×10^4 vascular smooth muscle cells suspended in […] 231 medium (without morelloflavone) were placed on the test sites within circular hydrophobic masks on the upper side of the filter plate (n=5 each). […] After additional 8-hour incubation, cells on the upper surface of the membrane, i.e., cells that had not migrated, were scraped off by Q-tips, and cells that had migrated to the lower surface were fixed and stained by hematoxylin solution and counted. Migrated cell 6 numbers were calculated as the number of cells migrated per 8.0 mm^2 test site surface area.

The test system of a further test is Ldlr−/−Apobec1−/− mice. As to the kind of experiment: Analysis of atherosclerotic lesions (en-face and cross-sectional). As to conditions: 8 months. The test is classed as in vivo, mouse. The procedure: As a model of in vivo athereosclerosis, mice that lack the low density lipoprotein (LDL) receptor and Apobec 1 genes (Ldlr^−/−Apobec1^−/−) were used. The Ldlr^−/−Apobec1^−/− mice were generated by crossbreeding Ldlr^−/− mice (Jackson Lab, Bar Harbor, Me.) and Apobec1^−/− mice (Dr. Lawrence Chan, Baylor College of Medicine). Genotyping was performed in standard PCR-based methods, using following primer sets: For Apobec1, 5′-TGAGTGAGTGGTGGTGGTAAAG-3′ (SEQ ID NO: 1) and 5′-CGAAATTCCTCCAGCAGTAAC-3′ (SEQ ID NO: 2) where […] and […] mice would have 475 by amplicon while Apobec1^−/− have none. For Ldlr, 5′-ACCCCAAGACGTGCTCCCAGGATGA-3′ (SEQ ID NO: 3), 5′-CGCAGTGCTCCTCATCTGACTTGT-3′ (SEQ ID NO: 4), 5′-AGGATCTCGTCGTGACCCATGGCGA-3′ (SEQ ID NO: 5), and 5′-GAGCGGCGATACCGTAAAGCACGAGG-3′ (SEQ ID NO: 6) where Ldlr^+/+ mice would yield 383 bp amplicon, while Ldlr^−/− 200 bp and […] amplicons, respectively.
Twenty four (24) 8 week old Ldlr^−/−Apobec1^−/− mice were randomly assigned to either control group (normal rodent chow, Lab Diet, Richmond, Ind., N=12) or morelloflavone group (normal rodent chow supplemented with 0.003% (w/w) morelloflavone, N=12). The 0.003% (w/w) morelloflavone corresponds to approximately 4 mg/kg morelloflavone for 30 gram animals that consume 4 grams of chow. Animals were housed individually in an air-conditioned room with 12-h light/dark cycle with access to food and water. Body weight of these mice was monitored monthly. After 8 months, animals were sacrificed for analyses of atherosclerosis. Just prior to the sacrifice, blood was sampled from the heart and collected into micro-centrifuge tubes containing EDTA. The entire aortae were excised. All animal experimentation protocols were performed according to the protocol approved by the Institutional Animal Care and Use Committee (IACUC) of the University of Texas Health Science Center at Houston, in accordance with the National Institutes of Health guidelines.
The aortae and hearts were excised en bloc. The extent and degree of atherosclerosis was quantified by both en-face analyses of atherosclerosis lesions and the intimal areas of the ascending aortae at the level of aortic valve leaflet. For en-face analysis of atherosclerotic areas, the distal portion of the ascending aortae, aortic arches, and descending aortae down to the liac bifurcations were pinned flat on a white wax surface, fixed with 10% (v/v) buffered formalin solution overnight, stained by freshly prepared and filtered Oil red O solution for 1 hr, rinsed twice with 78% methanol, mounted and dried on the glass slides, and scanned in the TIFF format using the ScanScope slide scanning system (Nikon, Melville, N.Y.). The planimetry of the entire surface areas and Oil red O-positive atherosclerotic lesion areas was performed on the scanned images using Sigma Scan Pro software (SPSS Science, Chicago, Ill.).
For the cross sectional analyses of atherosclerosis, the roots of the ascending aortae were embedded in OCT compound (Tissue-Tek®, Sakura-Fineteck U.S.A., Torrance, Calif.). […] In both methods of atherosclerosis quantification, the images of aortae were digitally captured and stored in the TIFF format, using the ScanScope slide scanning system (Nikon, Melville, N.Y.). The quantification of the atherosclerotic area was performed by Image J software (NIH, Bethesda, Md.) and expressed at lesion areas (μm^2).

For a further test, the target named is T1, sPLA2-V (Homo sapiens, UniProt P39877).
T1 sequence (P39877 21-138): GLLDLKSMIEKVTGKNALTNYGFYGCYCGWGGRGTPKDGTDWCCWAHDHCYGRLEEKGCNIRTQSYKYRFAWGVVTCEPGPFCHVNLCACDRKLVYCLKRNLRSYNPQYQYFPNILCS
The test can be described thus: sPLA2 enzyme activity assay, Group V. The class given is biochemical. As to conditions: recombinant human sPLA2-V, data not shown. The procedure: Recombinant human sPLA2 isoforms, Group IB, Group IIA, Group V, and Lp-PLA2 were obtained from R&D Systems and Cayman Chemical Co. sPLA2 enzyme activities in the presence of various concentrations of morelloflavone or other inhibitors were determined using a commercially available assay system according to the manufacturer's instructions (Cayman Chemical Co.). Thioetheramide-1-palmitylthio-2-palmitoylamido-1,2-dideoxy-sn-glycero-3-phosphorylcholine (T-PC) and methyl arachidonyl fluorophosphonate (MAFP) were used as inhibitors of sPLA2 (IB, IIA, and V) and Lp-PLA2, respectively, per manufacturers' instructions.

Entries after “also recorded” stand apart in the source; their conditions may differ.

What is called IC50 is the concentration that inhibits the measured activity by half. Turning to `O=C1c2c(O)cc(O)cc2O[C@H](c2ccc(O)cc2)[C@H]1c1c(O)cc(O)c2c(=O)cc(-c3ccc(O)c(O)c3)oc12` [morelloflavone, 5,7, 4′, 5″, 7″, 3″, 4″-heptahydroxy-[3,8″]-flavonylflavanone], the “effect on cell cycle progression” value in test [1] is “did not significantly affect; also recorded: does not affect cell cycle progression”. Also, in test [2], the “effect on vascular smooth muscle cell migration/invasion towards SMGS” value is reported as “significantly blocked; also recorded: blocks”. Besides, in the test on Ldlr−/−Apobec1−/− mice (0.003% (w/w) diet (0.03%), male Ldlr−/−Apobec1−/− mice), the “atherosclerotic surface area, en-face analysis” value is on record as 24.9±6.9 % of the total aortic surface area. In the test with Ldlr−/−Apobec1−/− mice (0.003% diet), the “atherosclerotic lesion area, cross-sectional analysis at aortic valve” value is on record as 5.65±1.05 ×10^3 μm^2; the “reduction of cross-sectional lesion area vs control” value was found to be 26%; the “reduction of en-face atherosclerotic area vs control” value came out at 26%. Moreover, in the test with Ldlr−/−Apobec1−/− mice (0.003% morelloflavone-containing diet), the “total area affected by atherosclerosis compared with control mice (en face)” value is reported as “substantially lower”. In addition, at sPLA2-V, the half-maximal inhibitory concentration (IC50) is greater than 10 µM.
